Assay [1] addresses T1, JAK3 kinase (Homo sapiens, UniProt P52333).
T1 sequence (P52333 1-1124): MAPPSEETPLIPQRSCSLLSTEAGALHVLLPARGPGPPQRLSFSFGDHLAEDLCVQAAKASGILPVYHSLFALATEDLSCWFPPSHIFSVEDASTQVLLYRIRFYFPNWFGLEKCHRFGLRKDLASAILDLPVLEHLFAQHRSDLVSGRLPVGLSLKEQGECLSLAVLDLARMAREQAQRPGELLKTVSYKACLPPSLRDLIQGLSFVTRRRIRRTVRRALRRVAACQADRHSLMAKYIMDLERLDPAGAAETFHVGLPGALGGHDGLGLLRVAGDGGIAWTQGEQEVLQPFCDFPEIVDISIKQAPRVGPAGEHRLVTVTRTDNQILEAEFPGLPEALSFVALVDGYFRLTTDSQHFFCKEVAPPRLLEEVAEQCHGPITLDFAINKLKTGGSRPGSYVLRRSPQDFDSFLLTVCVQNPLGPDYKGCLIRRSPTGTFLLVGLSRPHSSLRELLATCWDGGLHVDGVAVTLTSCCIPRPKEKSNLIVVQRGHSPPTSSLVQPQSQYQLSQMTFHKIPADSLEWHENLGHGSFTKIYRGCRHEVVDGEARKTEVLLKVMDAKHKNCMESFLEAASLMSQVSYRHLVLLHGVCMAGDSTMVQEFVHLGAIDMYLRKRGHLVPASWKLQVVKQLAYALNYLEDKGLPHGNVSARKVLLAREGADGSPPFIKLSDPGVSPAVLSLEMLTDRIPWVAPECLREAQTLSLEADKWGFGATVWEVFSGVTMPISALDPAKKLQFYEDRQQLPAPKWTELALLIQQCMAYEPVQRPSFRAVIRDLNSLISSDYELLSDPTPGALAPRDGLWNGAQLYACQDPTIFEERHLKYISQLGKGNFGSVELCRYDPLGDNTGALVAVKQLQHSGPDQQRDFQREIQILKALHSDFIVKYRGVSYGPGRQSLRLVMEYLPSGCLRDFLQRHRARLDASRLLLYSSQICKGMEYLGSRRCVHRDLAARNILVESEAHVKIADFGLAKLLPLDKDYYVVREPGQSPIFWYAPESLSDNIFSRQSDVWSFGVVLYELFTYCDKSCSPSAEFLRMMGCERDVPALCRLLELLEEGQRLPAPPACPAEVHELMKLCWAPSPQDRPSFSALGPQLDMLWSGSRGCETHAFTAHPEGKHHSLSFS
Kind of assay: Mobility shift assay, in vitro JAK3 kinase inhibitory activity. Type of assay: biochemical. Conditions: mobility shift assay, Example 136. The protocol:
A Mobility shift assay was adopted to detect compounds to be tested (see list below) for in vitro inhibitory activity on the enzyme activity of JAK3 kinase.
The compound was dissolved in 100% DMSO to formulate a 10 mM stock solution, which was stored in a −20° C. refrigerator with protection from light.
The compounds were diluted with gradients into solutions with a final concentration of 100 times in a 384-well plate. Then 250 nL was transferred to a 384 reaction plate with Echo550 for later use. 250 nL of 100% DMSO was added into the negative control well and the positive control well respectively. • (3) A kinase solution with a final concentration of 2.5 times was formulated with the 1× Kinase buffer. • (4) The compound wells and the positive control wells were added with 10 μL of the kinase solution with the final concentration of 2.5 times respectively; the negative control wells were added with 10 μL of the 1× Kinase buffer. • (5) The wells were centrifuged at 1,000 rpm for 30 seconds, mixed well by shaking, and then incubated at room temperature for 10 minutes. • (6) A mixed solution of ATP and Kinase substrate 22 with a final concentration of 25/15 times was formulated with a 1× Kinase buffer. • (7) The compound wells, positive control wells and negative control wells of the 384 reaction plate were respectively added with 15 μL of a mixed solution of ATP and the substrate at the final concentration of 25/15 times to start the reaction. • (8) The 384-well plate was centrifuged at 1,000 rpm for 30 seconds, mixed well by shaking, and then incubated at room temperature for 30 minutes. • (9) 30 μL of a detection termination solution was added to stop the kinase reaction, centrifuged at 1,000 rpm for 30 seconds, and mixed well by shaking. • (10) The conversion rate was read with Caliper EZ Reader.
% Inhibition=(Conversion %_max−Conversion %_sample)/(Conversion %_max−Conversion %_min)×100 (1) Calculation Equation
Among them: Conversion %_sample was the conversion rate reading of the sample; Conversion %_min was the mean value of the negative control wells, representing the conversion rate reading of the wells without enzyme activity; Conversion % max was the mean value of the positive control wells, representing the conversion rate reading of the wells without compound inhibition; and % Inhibition represented the percentage inhibition rate.
• by taking the log value of concentration as the X axis and taking the percent inhibition rate as the Y axis, a dose-response curve is fitted by adopting the log (inhibitor) vs. response-Variable slope of the analysis software GraphPad Prism 5, so as to obtain the IC50 value of each compound on the enzyme activity. The calculation equation was Y=Bottom+ (Top−Bottom)/(1+10^((Log IC50−X)*HillSlope)).

Assay [2] has as its system SRBC mouse model. Kind of assay: SRBC-induced delayed type hypersensitivity (DTH) in mice. Type of assay: in vivo. Conditions: male Balb/c mice, 100 mg/kg by gavage once a day, day 0 to day 6, FIG. 1. The protocol: PF-06651600 was used as a positive control compound.
Drug preparation: the compound was weighed and added with a 0.5% CMC-Na solution to prepare a drug suspension (with an administration dose of 10 mg/mL).
Induction of delayed type hypersensitivity (DTH) and administration: 30 male Balb/c mice were weighed and randomly divided into 6 groups according to body weight, with 5 mice in each group. The experimental period lasted for 7 days in total. On day 0, the mice were subcutaneously injected with sheep red blood cells (SRBCs) for sensitization. From day 0, the mice were administrated with 100 mg/kg by gavage (once a day) until day 6. On day 6, SRBCs were injected into the right hind foot pad of the mice for excitation. On day 7 of the experiment, measurements were conducted, photographs were taken, and the experiment was ended.
Pharmacodynamic detection indicators of disease models: the detection and observation indicators were the degree of redness and swelling and detected thicknesses of paw pads of the mice in the model group as induced by SRBC. The thickness of the right paw was measured as the baseline before the SRBC injection excitation on day 6. At the end of the experiment […], the thickness of the right paw was measured again, and the difference in thickness of the paw before and after the second injection was calculated.
Statistical processing: experimental data was expressed as mean±standard deviation (Mean±SD). All data was statistically analyzed using a T-test. P<0.05 was considered to be statistically different.

Bounds are passed on as bounds.

The results in this text go back to patent publication US20260158031A1, “AROMATIC HETEROCYCLIC COMPOUND, PHARMACEUTICAL COMPOSITION CONTAINING THE SAME, AND USE THEREOF” (HANG ZHOU YUHONG PHARMATECH CO., LTD., priority 2021, published 2026).

Turning to `C=CC(=O)N1CCn2ncc(-c3ccnc4[nH]ccc34)c2C1` [YZ001002], the IC50 in assay [1] worked out at 0.14 nM.
For `C[C@@H]1Cn2ncc(-c3ccnc4[nH]ccc34)c2CN1S(C)(=O)=O` [YZ001011], in assay [1], the IC50 is > 10000 nM.
In the case of `C[C@@H]1Cn2ncc(-c3ccnc4[nH]ccc34)c2CN1C(=O)CCl` [YZ001013], the IC50 in assay [1] was found to be 8.1 nM.
Same read-out and setting: the same measure for `C=CC(=O)N1Cc2c(-c3ncnc4[nH]ccc34)cnn2C[C@H]1C` [YZ001018]: 0.48 nM; for `C[C@H]1Cn2ncc(-c3ccnc4[nH]ccc34)c2CN1C(=O)/C=C/CN(C)C` [YZ001022]: 0.87 nM.
The same measure, in the same setting: to `C[C@H]1Cn2ncc(-c3ccnc4[nH]ccc34)c2CN1C(=O)/C=C/CN1CCCCC1` [YZ001023] belongs 0.58 nM; to `C=CC(=O)N1Cc2c(-c3ncnc4[nH]ccc34)cnn2C[C@@H]1C` [YZ001024], 0.15 nM; to `C=CC(=O)N1Cc2c(-c3ncnc4[nH]ccc34)cnn2[C@@H](C)C1` [YZ001026], 0.43 nM.
Consider `C[C@H]1CN(C(=O)/C=C/CN(C)C)Cc2c(-c3ncnc4[nH]ccc34)cnn21` [YZ001027], for which the IC50 in assay [1] was found to be 7.8 nM.
Still for that read-out and setting: the same measure for `C=CC(=O)N1Cc2c(-c3ncnc4[nH]ccc34)cnn2[C@H](C)C1` [YZ001028]: 0.19 nM; for `C=CC(=O)N1Cc2c(-c3ncnc4[nH]ccc34)cnn2C[C@H]1C(C)C` [YZ001030]: 2.4 nM.
The same measure, in the same setting: to `C=CC(=O)N1Cc2c(-c3ncnc4[nH]ccc34)cnn2C[C@@H]1C(C)C` [YZ001033] belongs 0.12 nM; to `C=CC(=O)N1Cc2c(-c3ccnc4[nH]ccc34)cnn2[C@@H]2CCC[C@@H]21` [YZ001045], 0.19 nM.
The same measure, in the same setting: the same measure for `CN(C)C/C=C/C(=O)N1Cc2c(-c3ccnc4[nH]ccc34)cnn2[C@@H]2CCC[C@@H]21` [YZ001047]: 4.5 nM; for `C=CC(=O)N1Cc2c(-c3ccnc4[nH]ccc34)cnn2[C@@H]2CCCC[C@@H]21` [YZ001055]: 0.11 nM; for `C=C(F)C(=O)N1Cc2c(-c3ccnc4[nH]ccc34)cnn2[C@@H]2CCCC[C@@H]21` [YZ001056]: 4.2 nM.
`C=CC(=O)N1Cc2c(-c3ccnc4[nH]ccc34)cnn2[C@H]2CCC[C@H]21` [YZ001057]: the IC50 in assay [1] worked out at 0.31 nM.
As to `C=CC(=O)N1Cc2c(-c3ccnc4[nH]cc(C(C)=O)c34)cnn2C[C@@H]1C` [YZ001063], the IC50 in assay [1] amounted to 1.4 nM.
In the case of `C=CC(=O)N1Cc2c(-c3ccnc4[nH]ccc34)cnn2C[C@H]1CCS(C)(=O)=O` [YZ001074], in assay [1], the IC50 stood at 0.57 nM.
Same read-out and setting: to `C=CC(=O)N1Cc2[nH]nc(-c3ccnc4[nH]ccc34)c2C1` [YZ001076] belongs 0.28 nM.
The same measure, in the same setting: the same measure for `C=C(F)C(=O)N1Cc2[nH]nc(-c3ccnc4[nH]ccc34)c2C1` [YZ001077]: 7.1 nM; for `C=CC(=O)N1Cc2c(-c3ccnc4[nH]ccc34)nn(C)c2C[C@H]1C` [YZ001083]: 1.5 nM.
`C=CC(=O)N1Cc2c(-c3ccnc4[nH]ccc34)nn(C(C)C)c2C[C@H]1C` [YZ001085]: the “immunosuppressive effect on SRBC-induced delayed type hypersensitivity (right paw thickness)” value in assay [2] is reported as “significant immunosuppressive effects”. The IC50 in assay [1] was determined as 0.53 nM.
As to `C=CC(=O)N1Cc2c(-c3ccnc4[nH]ccc34)n[nH]c2[C@@H]1C` [YZ001091], in assay [1], the IC50 is 5.1 nM.
The same measure, in the same setting: to `C=CC(=O)N1CCCn2ncc(-c3ccnc4[nH]ccc34)c2C1` [YZ001093] belongs 1.4 nM; to `C=CC(=O)N1CCCCn2ncc(-c3ccnc4[nH]ccc34)c2C1` [YZ001095], 7 nM; to `C=CC(=O)N1Cc2c(-c3ccnc4[nH]ccc34)cnn2[C@H](C)C1` [YZ001099], 0.2 nM.
Still for that read-out and setting: the same measure for `C=C(F)C(=O)N1Cc2c(-c3ccnc4[nH]ccc34)cnn2[C@H](C)C1` [YZ001100]: 3.8 nM; for `[2H]C([2H])([2H])n1nc(-c2ccnc3[nH]ccc23)c2c1CCN(C(=O)C=C)C2` [YZ001103]: 0.29 nM; for `C=CC(=O)N1CCc2c(c(-c3ccnc4[nH]ccc34)nn2C(C)=O)C1` [YZ001108]: 0.35 nM.
In the case of `C=C(F)C(=O)N1CCc2c(c(-c3ccnc4[nH]ccc34)nn2C(C)=O)C1` [YZ001109], in assay [1], the IC50 was 5.2 nM.
Same read-out and setting: the same measure for `C=CC(=O)N1CCc2c(c(-c3ccnc4[nH]ccc34)nn2C(C)C)C1` [YZ001117]: 6.93 nM.
